What all share (test): cell-based
One assay deals with mNav1.7 (Mus musculus, UniProt Q62205). The conditions noted are these: for mNav1.7/hNav1.7: ratio of PX tonic IC50, mouse Nav1.7 over human Nav1.7; for IC50: PatchXpress, tonic block, mouse Nav1.7, read-out: PX mNav1.7 Tonic IC50.
The target of the next assay is rNav1.7 (Rattus norvegicus, UniProt O08562). The following applies: ratio of PX tonic IC50, rat Nav1.7 over human Nav1.7.
In assay [1] the target is T1, hNav1.7 (Homo sapiens, UniProt Q15858). It counts as cell-based. The conditions noted are these: read-out: PX hNav1.7 Tonic IC50.
Assay [2] has as its target T2, hNav1.5 (Homo sapiens, UniProt Q14524). The following applies: for Nav1.5/Nav1.7: Table 13, ratio of PX tonic IC50 values; for IC50: read-out: PX hNav1.5 Tonic IC50.
Assay [3] has as its target T2, hNav1.5. The conditions noted are these: IonWorks Quattro; Table 9; read-out: IC50 (μM) Nav1.5.
In assay [4] the target is T3, hNav1.4 (Homo sapiens, UniProt P35499). In kind it is cell-based. The conditions noted are these: for Nav1.4/Nav1.7: Table 13, ratio of PX tonic IC50 values; for IC50: read-out: PX hNav1.4 Tonic IC50.
The target of assay [5] is T1, hNav1.7. The following applies: IonWorks Quattro; […]; read-out: IC50 (μM) Nav1.7.
Assay [6] addresses T3, hNav1.4. It counts as cell-based. The conditions noted are these: Table 9; for IC50: IonWorks Quattro, read-out: IC50 (μM) Nav1.4; for Nav1.4/Nav1.7: ratio of IonWorks Quattro IC50 values.
Another assay has as its target hNav1.3 (Homo sapiens, UniProt Q9NY46). The conditions noted are these: IonWorks Quattro; Table 9; read-out: IC50 (μM) Nav1.3.
The mark [7] stands for this setting: PatchXpress, tonic block, human Nav1.7.

Where “and” joins values, the source holds several entries; their conditions need not be identical. Equal entries are not always repeated. Where two headings read alike, the source gives them in different places.

T1 sequence (Q15858 whole entry): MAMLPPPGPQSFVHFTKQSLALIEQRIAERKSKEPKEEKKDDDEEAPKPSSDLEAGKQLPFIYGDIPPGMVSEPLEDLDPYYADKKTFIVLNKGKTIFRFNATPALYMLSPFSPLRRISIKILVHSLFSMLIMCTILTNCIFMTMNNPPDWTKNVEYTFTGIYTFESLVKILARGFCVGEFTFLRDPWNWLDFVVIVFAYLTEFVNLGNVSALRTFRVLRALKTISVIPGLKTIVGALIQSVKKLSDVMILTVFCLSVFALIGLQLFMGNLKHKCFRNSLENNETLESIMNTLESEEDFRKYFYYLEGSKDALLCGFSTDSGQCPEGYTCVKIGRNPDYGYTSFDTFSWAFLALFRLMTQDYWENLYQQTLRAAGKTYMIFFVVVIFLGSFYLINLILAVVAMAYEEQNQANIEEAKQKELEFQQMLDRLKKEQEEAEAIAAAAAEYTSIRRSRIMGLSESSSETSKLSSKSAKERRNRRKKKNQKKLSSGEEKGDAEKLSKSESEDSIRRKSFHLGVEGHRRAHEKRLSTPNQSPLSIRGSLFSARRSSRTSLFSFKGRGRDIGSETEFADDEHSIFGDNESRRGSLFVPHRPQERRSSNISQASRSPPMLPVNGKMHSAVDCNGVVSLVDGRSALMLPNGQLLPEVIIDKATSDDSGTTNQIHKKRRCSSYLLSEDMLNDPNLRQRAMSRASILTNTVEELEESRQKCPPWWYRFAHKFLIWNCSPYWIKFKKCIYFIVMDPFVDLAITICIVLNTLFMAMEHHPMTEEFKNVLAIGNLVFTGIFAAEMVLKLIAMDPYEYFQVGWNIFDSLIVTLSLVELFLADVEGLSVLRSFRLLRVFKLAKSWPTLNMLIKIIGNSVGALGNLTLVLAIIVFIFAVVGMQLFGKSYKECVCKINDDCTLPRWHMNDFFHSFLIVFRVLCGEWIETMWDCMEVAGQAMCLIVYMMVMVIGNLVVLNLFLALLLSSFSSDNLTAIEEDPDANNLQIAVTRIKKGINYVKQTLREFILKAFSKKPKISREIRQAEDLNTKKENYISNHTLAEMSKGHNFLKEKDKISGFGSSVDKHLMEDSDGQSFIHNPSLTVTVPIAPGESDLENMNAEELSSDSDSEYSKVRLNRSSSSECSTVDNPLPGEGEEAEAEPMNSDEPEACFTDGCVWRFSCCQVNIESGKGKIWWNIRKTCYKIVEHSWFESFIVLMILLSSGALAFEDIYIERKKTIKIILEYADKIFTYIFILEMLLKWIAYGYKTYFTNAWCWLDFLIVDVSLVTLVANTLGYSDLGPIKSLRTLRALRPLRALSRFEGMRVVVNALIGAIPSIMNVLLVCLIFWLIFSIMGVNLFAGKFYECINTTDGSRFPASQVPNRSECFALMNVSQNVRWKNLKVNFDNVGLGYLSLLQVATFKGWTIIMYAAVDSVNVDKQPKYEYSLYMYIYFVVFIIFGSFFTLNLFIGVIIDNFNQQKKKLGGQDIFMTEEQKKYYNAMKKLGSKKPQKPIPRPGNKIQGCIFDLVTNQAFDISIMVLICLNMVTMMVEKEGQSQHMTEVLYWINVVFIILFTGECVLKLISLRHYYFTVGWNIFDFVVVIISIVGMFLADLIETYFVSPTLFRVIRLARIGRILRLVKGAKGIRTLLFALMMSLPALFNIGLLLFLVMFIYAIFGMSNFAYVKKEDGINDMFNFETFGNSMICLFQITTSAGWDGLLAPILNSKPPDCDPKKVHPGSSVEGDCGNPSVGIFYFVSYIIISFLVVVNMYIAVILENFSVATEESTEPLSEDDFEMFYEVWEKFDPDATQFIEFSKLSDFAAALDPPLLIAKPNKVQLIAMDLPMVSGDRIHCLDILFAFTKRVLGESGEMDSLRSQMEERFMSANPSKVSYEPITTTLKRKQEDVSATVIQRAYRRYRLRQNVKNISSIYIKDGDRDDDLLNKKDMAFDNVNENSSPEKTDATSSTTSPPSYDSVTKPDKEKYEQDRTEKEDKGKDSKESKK
T3 sequence (P35499 whole entry): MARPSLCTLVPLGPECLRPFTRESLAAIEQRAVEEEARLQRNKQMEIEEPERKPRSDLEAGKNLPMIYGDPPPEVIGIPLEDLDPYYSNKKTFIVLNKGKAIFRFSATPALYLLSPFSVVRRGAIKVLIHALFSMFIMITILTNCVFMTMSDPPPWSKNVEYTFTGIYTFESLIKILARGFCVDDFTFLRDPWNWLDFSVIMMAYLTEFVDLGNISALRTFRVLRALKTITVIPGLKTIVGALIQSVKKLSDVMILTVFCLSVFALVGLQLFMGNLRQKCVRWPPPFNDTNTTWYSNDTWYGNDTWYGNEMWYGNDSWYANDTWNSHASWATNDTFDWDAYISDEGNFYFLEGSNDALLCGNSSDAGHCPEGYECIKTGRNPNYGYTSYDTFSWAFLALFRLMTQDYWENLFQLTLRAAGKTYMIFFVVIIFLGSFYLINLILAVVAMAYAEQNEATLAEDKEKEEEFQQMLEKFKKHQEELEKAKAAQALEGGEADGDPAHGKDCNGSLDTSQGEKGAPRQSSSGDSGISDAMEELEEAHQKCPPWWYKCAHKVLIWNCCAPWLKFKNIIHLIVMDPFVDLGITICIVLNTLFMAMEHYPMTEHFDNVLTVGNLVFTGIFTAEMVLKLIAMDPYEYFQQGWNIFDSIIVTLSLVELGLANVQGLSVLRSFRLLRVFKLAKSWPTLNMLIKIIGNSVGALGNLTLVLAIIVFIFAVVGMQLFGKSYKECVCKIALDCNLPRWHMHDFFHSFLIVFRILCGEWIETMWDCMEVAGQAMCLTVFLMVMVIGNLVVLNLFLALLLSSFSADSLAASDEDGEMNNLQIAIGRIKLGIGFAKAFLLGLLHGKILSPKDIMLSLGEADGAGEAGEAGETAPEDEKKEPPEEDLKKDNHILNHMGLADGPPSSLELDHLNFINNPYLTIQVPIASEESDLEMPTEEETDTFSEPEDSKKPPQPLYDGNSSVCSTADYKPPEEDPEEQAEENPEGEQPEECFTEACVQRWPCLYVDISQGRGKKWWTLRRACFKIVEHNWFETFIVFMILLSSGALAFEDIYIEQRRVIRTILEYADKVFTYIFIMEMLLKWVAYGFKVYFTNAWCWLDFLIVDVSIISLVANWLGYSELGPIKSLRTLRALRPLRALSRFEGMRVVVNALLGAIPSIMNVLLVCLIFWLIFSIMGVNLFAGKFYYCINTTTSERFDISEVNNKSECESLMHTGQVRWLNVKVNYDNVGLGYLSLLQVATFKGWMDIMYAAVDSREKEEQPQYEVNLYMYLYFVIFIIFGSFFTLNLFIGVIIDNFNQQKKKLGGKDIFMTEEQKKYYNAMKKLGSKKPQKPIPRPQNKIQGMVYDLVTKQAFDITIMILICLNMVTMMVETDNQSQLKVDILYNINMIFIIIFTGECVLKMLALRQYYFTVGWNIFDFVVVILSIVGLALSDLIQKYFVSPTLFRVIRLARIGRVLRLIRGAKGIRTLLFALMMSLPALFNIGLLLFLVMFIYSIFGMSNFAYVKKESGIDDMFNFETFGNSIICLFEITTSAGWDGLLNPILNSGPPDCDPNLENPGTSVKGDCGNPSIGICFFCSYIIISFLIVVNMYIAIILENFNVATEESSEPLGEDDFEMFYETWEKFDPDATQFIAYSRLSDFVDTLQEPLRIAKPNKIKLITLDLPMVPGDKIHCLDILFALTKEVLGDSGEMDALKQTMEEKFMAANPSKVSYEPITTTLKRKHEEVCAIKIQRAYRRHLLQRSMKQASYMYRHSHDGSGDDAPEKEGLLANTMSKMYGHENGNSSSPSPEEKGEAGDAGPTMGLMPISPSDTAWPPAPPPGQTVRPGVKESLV

With `CCCC[C@@H]1NC(=O)[C@H](Cc2c[nH]c3ccccc23)NC(=O)[C@H](CCCCN)NC(=O)[C@H](CCC(N)=O)NC(=O)[C@@H](NC(=O)[C@H](Cc2ccc(O)cc2)NC(=O)[C@@H](N)CC#N)CSSC[C@@H]2NC(=O)[C@@H]3CSSC[C@@H](C(=O)N[C@@H](CCCNC(=N)N)C(=O)N[C@@H](CCCCN)C(=O)N[C@@H](CCC(=O)O)C(=O)N[C@H](C(N)=O)[C@@H](C)CC)NC(=O)[C@H](Cc4c[nH]c5ccccc45)NC(=O)[C@H](CC(C)C)NC(=O)[C@H](CCCCN)NC(=O)[C@H](CSSC[C@H](NC(=O)[C@H]([C@@H](C)O)NC(=O)[C@H](Cc4c[nH]c5ccccc45)NC1=O)C(=O)N[C@@H](CC(=O)O)C(=O)N[C@@H](CO)C(=O)N[C@@H](CCCCN)C(=O)N[C@@H](CCCNC(=N)N)C(=O)N[C@@H](C)C(=O)N3)NC(=O)[C@H](CCCNC(=N)N)NC(=O)[C@H](CC(C)C)NC(=O)CNC(=O)[C@H](Cc1cn(CCCOCCOCCOCCOCCOCCOCCOCCOCCOCCOCCN)nn1)NC2=O`, the mNav1.7/hNav1.7 on mNav1.7 was determined as 2.23. Further, the rNav1.7/hNav1.7 on rNav1.7 came out at 0.46.
As to `CCCC[C@@H]1NC(=O)[C@H](Cc2c[nH]c3ccccc23)NC(=O)[C@H](CCCCN)NC(=O)[C@H](CCC(N)=O)NC(=O)[C@@H](NC(=O)[C@H](Cc2ccc(O)cc2)NC(=O)[C@@H](N)CC#N)CSSC[C@@H]2NC(=O)[C@@H]3CSSC[C@@H](C(=O)N[C@@H](CCCNC(=N)N)C(=O)N[C@@H](CCCCN)C(=O)N[C@H](C(=O)N[C@H](C(N)=O)[C@@H](C)CC)[C@@H](C)CC)NC(=O)[C@H](Cc4c[nH]c5ccccc45)NC(=O)[C@H](CC(C)C)NC(=O)[C@H](CCCCN)NC(=O)[C@H](CSSC[C@H](NC(=O)[C@H]([C@@H](C)O)NC(=O)[C@H](Cc4c[nH]c5ccccc45)NC1=O)C(=O)N[C@@H](CC(=O)O)C(=O)N[C@@H](CO)C(=O)N[C@@H](CCCCN)C(=O)N[C@@H](CCCNC(=N)N)C(=O)N[C@@H](C)C(=O)N3)NC(=O)[C@H](CCCNC(=N)N)NC(=O)[C@H](CC(C)C)NC(=O)CNC(=O)[C@H](CCC(=O)O)NC2=O` [CyA-[Nle6]JzTx-V(1-29)], on mNav1.7, the IC50 turned out to be 0.957 nM and the mNav1.7/hNav1.7 was 3.09. Also, at hNav1.7 [1] (setting [7]), the IC50 came out at 0.31 nM.
Take `CCCC[C@@H]1NC(=O)[C@H](Cc2c[nH]c3ccccc23)NC(=O)[C@H](CCCCN)NC(=O)[C@H](CCC(N)=O)NC(=O)[C@@H](NC(=O)[C@H](Cc2ccc(O)cc2)NC(=O)[C@H](N)CC(C)C)CSSC[C@@H]2NC(=O)[C@@H]3CSSC[C@@H](C(=O)N[C@@H](CCCNC(=N)N)C(=O)N[C@@H](CCCCN)C(=O)N[C@H](C(=O)N[C@H](C(N)=O)[C@@H](C)CC)[C@@H](C)CC)NC(=O)[C@H](Cc4c[nH]c5ccccc45)NC(=O)[C@H](CC(C)C)NC(=O)[C@H](CCCCN)NC(=O)[C@H](CSSC[C@H](NC(=O)[C@H]([C@@H](C)O)NC(=O)[C@H](Cc4c[nH]c5ccccc45)NC1=O)C(=O)N[C@@H](CC(=O)O)C(=O)N[C@@H](CO)C(=O)N[C@@H](CCCCN)C(=O)N[C@@H](CCCNC(=N)N)C(=O)N[C@@H](C)C(=O)N3)NC(=O)[C@H](CCCNC(=N)N)NC(=O)[C@H](CC(C)C)NC(=O)CNC(=O)[C@H](CCC(=O)O)NC2=O` [D-Leu-[Nle6]JzTx-V(1-29)]: the results for the half-inhibitory concentration (IC50) at mNav1.7 and at hNav1.7 [1] (setting [7]) were 12.6 nM and 0.15 nM, respectively. Also, at mNav1.7, the mNav1.7/hNav1.7 amounted to 84.00.
For `CCCC[C@@H]1NC(=O)[C@H](Cc2c[nH]c3ccccc23)NC(=O)[C@H](CCCCN)NC(=O)[C@H](CCC(N)=O)NC(=O)[C@@H](NC(=O)[C@H](Cc2ccc(O)cc2)NC(=O)[C@@H](N)Cc2c[nH]c3ccccc23)CSSC[C@@H]2NC(=O)[C@@H]3CSSC[C@@H](C(=O)N[C@@H](CCCNC(=N)N)C(=O)N[C@@H](CCCCN)C(=O)N[C@H](C(=O)N[C@H](C(N)=O)[C@@H](C)CC)[C@@H](C)CC)NC(=O)[C@H](Cc4c[nH]c5ccccc45)NC(=O)[C@H](CC(C)C)NC(=O)[C@H](CCCCN)NC(=O)[C@H](CSSC[C@H](NC(=O)[C@H]([C@@H](C)O)NC(=O)[C@H](Cc4c[nH]c5ccccc45)NC1=O)C(=O)N[C@@H](CC(=O)O)C(=O)N[C@@H](CO)C(=O)N[C@@H](CCCCN)C(=O)N[C@@H](CCCNC(=N)N)C(=O)N[C@@H](C)C(=O)N3)NC(=O)[C@H](CCCNC(=N)N)NC(=O)[C@H](CC(C)C)NC(=O)CNC(=O)[C@H](CCC(=O)O)NC2=O` [Trp-[Nle6]JzTx-V(1-29)], on mNav1.7, the half-maximal inhibitory concentration (IC50) was 1.34 nM and the mNav1.7/hNav1.7 is recorded as 4.07. Moreover, on hNav1.7 [1] (setting [7]), the IC50 stood at 0.33 nM.
Take `CCCC[C@@H]1NC(=O)[C@H](Cc2c[nH]c3ccccc23)NC(=O)[C@H](CCCCN)NC(=O)[C@H](CCC(N)=O)NC(=O)[C@@H](NC(=O)[C@H](Cc2ccc(O)cc2)NC(=O)[C@@H](N)Cc2cn(CCCOCCOCCOCCOCCOCCOCCOCCOCCOCCOCCN)nn2)CSSC[C@@H]2NC(=O)[C@@H]3CSSC[C@@H](C(=O)N[C@@H](CCCNC(=N)N)C(=O)N[C@@H](CCCCN)C(=O)N[C@H](C(=O)N[C@H](C(N)=O)[C@@H](C)CC)[C@@H](C)CC)NC(=O)[C@H](Cc4c[nH]c5ccccc45)NC(=O)[C@H](CC(C)C)NC(=O)[C@H](CCCCN)NC(=O)[C@H](CSSC[C@H](NC(=O)[C@H]([C@@H](C)O)NC(=O)[C@H](Cc4c[nH]c5ccccc45)NC1=O)C(=O)N[C@@H](CC(=O)O)C(=O)N[C@@H](CO)C(=O)N[C@@H](CCCCN)C(=O)N[C@@H](CCCNC(=N)N)C(=O)N[C@@H](C)C(=O)N3)NC(=O)[C@H](CCCNC(=N)N)NC(=O)[C@H](CC(C)C)NC(=O)CNC(=O)[C@H](CCC(=O)O)NC2=O` [compound 247]: at hNav1.5 [2], the Nav1.5/Nav1.7 turned out to be 629. Also, the half-maximal inhibitory concentration (IC50) came to 3770 nM on hNav1.5 [2]; 4.3 µM on hNav1.5 [3]; 8 nM at hNav1.4 [4]; 6 nM at hNav1.7 [1]; 0.07 µM at hNav1.7 [5]; 0.15 µM on hNav1.4 [6]. Moreover, the half-inhibitory concentration (IC50) on hNav1.3 came out at 0.13 µM. The Nav1.4/Nav1.7 on hNav1.4 [4] turned out to be 1; at hNav1.4 [6] it was 2.
`CCCC[C@@H]1NC(=O)[C@H](Cc2c[nH]c3ccccc23)NC(=O)[C@H](CCCCN)NC(=O)[C@H](CCC(N)=O)NC(=O)[C@@H](NC(=O)[C@@H](N)Cc2cn(CCCOCCOCCOCCOCCOCCOCCOCCOCCOCCOCCN)nn2)CSSC[C@@H]2NC(=O)[C@@H]3CSSC[C@@H](C(=O)N[C@@H](CCCNC(=N)N)C(=O)N[C@@H](CCCCN)C(=O)N[C@H](C(=O)N[C@H](C(N)=O)[C@@H](C)CC)[C@@H](C)CC)NC(=O)[C@H](Cc4c[nH]c5ccccc45)NC(=O)[C@H](CC(C)C)NC(=O)[C@H](CCCCN)NC(=O)[C@H](CSSC[C@H](NC(=O)[C@H]([C@@H](C)O)NC(=O)[C@H](Cc4c[nH]c5ccccc45)NC1=O)C(=O)N[C@@H](CC(=O)O)C(=O)N[C@@H](CO)C(=O)N[C@@H](CCCCN)C(=O)N[C@@H](CCCNC(=N)N)C(=O)N[C@@H](C)C(=O)N3)NC(=O)[C@H](CCCNC(=N)N)NC(=O)[C@H](CC(C)C)NC(=O)CNC(=O)[C@H](CCC(=O)O)NC2=O` [compound 248]: the Nav1.5/Nav1.7 at hNav1.5 [2] is recorded as 946. Moreover, the IC50 on hNav1.5 [2] was 950 nM; on hNav1.5 [3], greater than 7 µM; on hNav1.4 [4] it was 15 nM; on hNav1.7 [1], 1 nM; at hNav1.4 [6] it was 0.39 µM and 0.45 µM; on hNav1.3 it was 0.16 µM and 0.13 µM. The Nav1.4/Nav1.7 was 15 on hNav1.4 [4]; 4 and 3 on hNav1.4 [6].
For the compound `CCCC[C@@H]1NC(=O)[C@H](Cc2c[nH]c3ccccc23)NC(=O)[C@H](CCCCN)NC(=O)[C@H](CCC(N)=O)NC(=O)[C@@H](NC(=O)[C@@H](N)Cc2ccc(O)cc2)CSSC[C@@H]2NC(=O)[C@@H]3CSSC[C@@H](C(=O)N[C@@H](CCCNC(=N)N)C(=O)N[C@@H](CCCCN)C(=O)N[C@H](C(=O)N[C@H](C(N)=O)[C@@H](C)CC)[C@@H](C)CC)NC(=O)[C@H](Cc4c[nH]c5ccccc45)NC(=O)[C@H](CC(C)C)NC(=O)[C@H](CCCCN)NC(=O)[C@H](CSSC[C@H](NC(=O)[C@H]([C@@H](C)O)NC(=O)[C@H](Cc4c[nH]c5ccccc45)NC1=O)C(=O)N[C@@H](CC(=O)O)C(=O)N[C@@H](Cc1cn(CCCOCCOCCOCCOCCOCCOCCOCCOCCOCCOCCN)nn1)C(=O)N[C@@H](CCCCN)C(=O)N[C@@H](CCCNC(=N)N)C(=O)N[C@@H](C)C(=O)N3)NC(=O)[C@H](CCCNC(=N)N)NC(=O)[C@H](CC(C)C)NC(=O)CNC(=O)[C@H](CCC(=O)O)NC2=O` [compound 256], on hNav1.5 [2], the Nav1.5/Nav1.7 came out at 200. For the same compound, the IC50 is 1860 nM on hNav1.5 [2]; greater than 5 µM on hNav1.5 [3]; 27 nM at hNav1.4 [4]; 9.3 nM on hNav1.7 [1]; 0.4 µM and 0.5 µM on hNav1.4 [6]; 0.2 µM and 0.4 µM on hNav1.3. The Nav1.4/Nav1.7 is reported as 3 at hNav1.4 [4] and 4 on hNav1.4 [6].

(Values after US10344060B2 (priority 2013, dated 2019).)
